Legend:
Type in all cases: cell-based
HepG2 (liver cancer) = assay: MTT antiproliferative assay, HepG2; conditions: Homo sapiens, HepG2, 10 μM, 48 or 72 h, read-out: inhibition of cell growth, HepG2
Description: (§1) The antiproliferative activity of a test compound was determined in cell lines: MDA-MB-231 (breast cancer), HepG2 (liver cancer), SW620 (colon cancer), A375 (malignant melanoma), A431 (epidermoid carcinoma), A549 (lung adenocarcinoma), and HeLa ([…]). MDA-MB-231, HepG2, SW480, SW620, A375, and A431 cells were cultured in Dulbecco's modified Eagle's medium (DMEM) containing 10% fetal bovine serum (FBS). HeLa cells were cultured in MEM/EBSS (MEM) containing 10% FBS. A549 cells were maintained in Kaighn's modification of Ham's F-12 medium containing 10% FBS. The colorimetric MTT (3-(4,5-dimethylthiazol-2-yl)-2,5-diphenyltetrazolium bromide) assay was used to measure the cell viability of different cells following treatment with the test compound.
(§2) Briefly cells were seeded in a 96 well plate at a density of 2,000-5,000 cells/well. Following attachment, the cells were treated with the test compound in media at various concentrations ranging from 0.137 to 100 μM or at a single concentration of 10 μM. After the cells were incubated at 37° C. for 48 or 72 h, MTT (20 μL, 5 mg/mL in PBS) was added to each well and the cells were incubated for another 4 h at 37° C. The supernatant was removed carefully and 150 μL of DMSO was added to each well to dissolve the MTT formazan crystals. The plate was shaken for 15-20 min and the absorbance value of each well was determined using a multi-well plate reader at 490 nm. The wells treated with DMSO were taken as a vehicle control. Data were also obtained similarly for all the replicates and the percentage viability was determined with respect to the DMSO-treated cells. The results are summarized in Table 1 below, wherein A represents no less than 80% inhibition of cell growth at 10 μM; B represents no less than 50% but less than 80% inhibition of cell growth at 10 μM; C represents no less than 30% but less than 50% inhibition of cell growth at 10 μM; and D represents less than 30% inhibition of cell growth at 10 μM.

[1] = tested on: A375 (malignant melanoma); assay: MTT antiproliferative assay, A375; conditions: Homo sapiens, A-375, A375, 10 μM, 48 or 72 h, read-out: inhibition of cell growth, A375
Description: as §1, §2

SW620 (colon cancer) = assay: MTT antiproliferative assay, SW620; conditions: Homo sapiens, SW-620, SW620, 10 μM, 48 or 72 h, read-out: inhibition of cell growth, SW620
Description: as §1, §2

[2] = tested on: MDA-MB-231 (breast cancer); assay: MTT antiproliferative assay, MDA-MB-231; conditions: Homo sapiens, MDA-MB-231, 10 μM, 48 or 72 h, read-out: inhibition of cell growth, MDA-MB-231
Description: as §1, §2

[3] = tested on: A431 (epidermoid carcinoma); assay: MTT antiproliferative assay, A431; conditions: Homo sapiens, A-431, A431, 10 μM, 48 or 72 h, read-out: inhibition of cell growth, A431
Description: as §1, §2

HeLa (ovarian cancer) = assay: MTT antiproliferative assay, HeLa; conditions: Homo sapiens, 48 or 72 h, read-out: inhibition of cell growth, HELA
Description: as §1, §2

[4] = tested on: A549 (lung adenocarcinoma); assay: MTT antiproliferative assay, A549; conditions: Homo sapiens, A549, 10 μM, 48 or 72 h, read-out: inhibition of cell growth, A549
Description: as §1, §2

Row | Compound | inhibition at 10 µM (HepG2 (liver cancer)) | inhibition at 10 µM [1] | inhibition at 10 µM (SW620 (colon cancer)) | inhibition at 10 µM [2] | inhibition at 10 µM [3] | inhibition at 10 µM (HeLa (ovarian cancer)) | inhibition at 10 µM [4]
1 | COC1(C)C2=CC=C3[C@@](C)(CC[C@@]4(C)[C@@H]5C[C@](C)(C(=O)O)CC[C@]5(C)CC[C@]34C)C2=CC(=O)C1CC#N (stereo in doubt) [Compound A38, (2R,4aS,6aS,9S,12bR,14aS,14bR)-10-(cyanomethyl)-9-methoxy-2,4a,6a,9,12b,14a-hexamethyl-11-oxo-1,2,3,4,4a,5,6,6a,9,10,11,12b,13,14,14a,14b-hexadecahydropicene-2-carboxylic acid] | < 30% | 30 to 50% | 50 to 80% | 30 to 50% | 30 to 50% | ≥ 80% | < 30%
2 | [2H]C([2H])([2H])O[C@]1(C)C(=O)C(=O)C=C2C1=CC=C1[C@@]2(C)CC[C@@]2(C)[C@@H]3C[C@](C)(C(=O)O)CC[C@]3(C)CC[C@]12C [Compound A2, (2R,4aS,6aS,9S,12bR,14aS,14bR)-9-(methoxy-d3)-2,4a,6a,9,12b,14a-hexamethyl-10,11-dioxo-1,2,3,4,4a,5,6,6a,9,10,11,12b,13,14,14a,14b-hexadecahydropicene-2-carboxylic acid] | 50 to 80% | 30 to 50% | 30 to 50% | 50 to 80% | 50 to 80% | ≥ 80% | 30 to 50%
3 | CC(=O)OC1(C)C(=O)C(=O)C=C2C1=CC=C1[C@@]2(C)CC[C@@]2(C)[C@@H]3C[C@](C)(C(=O)O)CC[C@]3(C)CC[C@]12C (stereo partly drawn) [Compound A3, (2R,4aS,6aS,12bR,14aS,14bR)-9-(acetyloxy)-2,4a,6a,9,12b,14a-hexamethyl-10,11-dioxo-1,2,3,4,4a,5,6,6a,9,10,11,12b,13,14,14a,14b-hexadecahydropicene-2-carboxylic acid] | < 30% | < 30% | < 30% | < 30% | ≥ 80% | 50 to 80% | 50 to 80%
4 | COC(=O)[C@]1(C)CC[C@]2(C)CC[C@]3(C)C4=CC=C5C(=CC(=O)C(=O)C5(C)c5c[nH]c6ccccc56)[C@]4(C)CC[C@@]3(C)[C@@H]2C1 (stereo partly drawn) [Compound A4, methyl (2R,4aS,6aS,12bR,14aS,14bR)-9-(1H-indol-3-yl)-2,4a,6a,9,12b,14a-hexamethyl-10,11-dioxo-1,2,3,4,4a,5,6,6a,9,10,11,12b,13,14,14a,14b-hexadecahydropicene-2-carboxylate] | 50 to 80% | 50 to 80% | 50 to 80% | 30 to 50% | ≥ 80% | ≥ 80% | 50 to 80%
5 | COC(=O)[C@]1(C)CC[C@]2(C)CC[C@]3(C)C4=CC=C5C(=CC(=O)C(=O)[C@@]5(C)OC)[C@]4(C)CC[C@@]3(C)[C@@H]2C1 [Compound A5, methyl (2R,4aS,6aS,9S,12bR,14aS,14bR)-9-methoxy-2,4a,6a,9,12b,14a-hexamethyl-10,11-dioxo-1,2,3,4,4a,5,6,6a,9,10,11,12b,13,14,14a,14b-hexadecahydropicene-2-carboxylate] | ≥ 80% | 50 to 80% | 50 to 80% | ≥ 80% | ≥ 80% | ≥ 80% | 30 to 50%
6 | CO[C@]1(C)C(=O)C(=O)C=C2C1=CC=C1[C@@]2(C)CC[C@@]2(C)[C@@H]3C[C@](C)(C(=O)On4nnc5ccccc54)CC[C@]3(C)CC[C@]12C [Compound A6, 1H-1,2,3-benzotriazol-1-yl (2R,4aS,6aS,9S,12bR,14aS,14bR)-9-methoxy-2,4a,6a,9,12b,14a-hexamethyl-10,11-dioxo-1,2,3,4,4a,5,6,6a,9,10,11,12b,13,14,14a,14b-hexadecahydropicene-2-carboxylate] | ≥ 80% | 30 to 50% | 50 to 80% | 50 to 80% | 50 to 80% | ≥ 80% | 50 to 80%
7 | CO[C@]1(C)C(=O)C(=O)C=C2C1=CC=C1[C@@]2(C)CC[C@@]2(C)[C@@H]3C[C@](C)(C(=O)F)CC[C@]3(C)CC[C@]12C [Compound A8, (2R,4aS,6aS,9S,12bR,14aS,14bR)-9-methoxy-2,4a,6a,9,12b,14a-hexamethyl-10,11-dioxo-1,2,3,4,4a,5,6,6a,9,10,11,12b,13,14,14a,14b-hexadecahydropicene-2-carbonyl fluoride] | ≥ 80% | 30 to 50% | 50 to 80% | 50 to 80% | ≥ 80% | 50 to 80% | 50 to 80%
8 | CCNC(=O)[C@]1(C)CC[C@]2(C)CC[C@]3(C)C4=CC=C5C(=CC(=O)C(=O)[C@@]5(C)OC)[C@]4(C)CC[C@@]3(C)[C@@H]2C1 [Compound A10, (2R,4aS,6aS,9S,12bR,14aS,14bR)—N-ethyl-9-methoxy-2,4a,6a,9,12b,14a-hexamethyl-10,11-dioxo-1,2,3,4,4a,5,6,6a,9,10,11,12b,13,14,14a,14b-hexadecahydropicene-2-carboxamide] | 50 to 80% | 30 to 50% | 50 to 80% | ≥ 80% | 50 to 80% | ≥ 80% | 30 to 50%
9 | CO[C@]1(C)C(=O)C(=O)C=C2C1=CC=C1[C@@]2(C)CC[C@@]2(C)[C@@H]3C[C@](C)(C(=O)OCc4ccccc4)CC[C@]3(C)CC[C@]12C [Compound A11, benzyl (2R,4aS,6aS,9S,12bR,14aS,14bR)-9-methoxy-2,4a,6a,9,12b,14a-hexamethyl-10,11-dioxo-1,2,3,4,4a,5,6,6a,9,10,11,12b,13,14,14a,14b-hexadecahydropicene-2-carboxylate] | ≥ 80% | 50 to 80% | ≥ 80% | ≥ 80% | < 30% | ≥ 80% | < 30%
10 | CCCNC(=O)[C@]1(C)CC[C@]2(C)CC[C@]3(C)C4=CC=C5C(=CC(=O)C(=O)[C@@]5(C)OC)[C@]4(C)CC[C@@]3(C)[C@@H]2C1 [Compound A12, (2R,4aS,9S,6aS,12bR,14aS,14bR)—N-propyl-9-methoxy-2,4a,6a,9,12b,14a-hexamethyl-10,11-dioxo-1,2,3,4,4a,5,6,6a,9,10,11,12b,13,14,14a,14b-hexadecahydropicene-2-carboxamide] | ≥ 80% | 30 to 50% | 50 to 80% | 50 to 80% | ≥ 80% | ≥ 80% | ≥ 80%
11 | CO[C@]1(C)C(=O)C(=O)C=C2C1=CC=C1[C@@]2(C)CC[C@@]2(C)[C@@H]3C[C@](C)(C(=O)N(C)C)CC[C@]3(C)CC[C@]12C [Compound A13, (2R,4aS,6aS,9S,12bR,14aS,14bR)-9-methoxy-N,N,2,4a,6a,9,12b,14a-octamethyl-10,11-dioxo-1,2,3,4,4a,5,6,6a,9,10,11,12b,13,14,14a,14b-hexadecahydropicene-2-carboxamide] | ≥ 80% | 30 to 50% | ≥ 80% | ≥ 80% | ≥ 80% | ≥ 80% | ≥ 80%

From patent US12570687B2, “Triterpenoid compounds, pharmaceutical compositions thereof, and their use for treating a nuclear receptor subfamily 4 group a member 1-mediated disease” (NUCMITO PHARMACEUTICALS COMPANY LIMITED, priority 2019, dated 2026)
